Experimental data: the supplement of paper PMC10307832

What was measured:
Assay in all cases: relative viability (nuclei count vs DMSO), 5 days (fraction); higher = more cells survive
QS11 + AZD7762 = compound: C1CC2=C(C1)C=C(C=C2)OC3=NC(=C4C(=N3)N(C=N4)CC5=CC=C(C=C5)C6=CC=CC=C6)N[C@@H](CC7=CC=CC=C7)CO [QS11] + NC(=O)Nc1cc(-c2cccc(F)c2)sc1C(=O)N[C@H]1CCCNC1 [AZD7762] (partner 0.2 µM)
How it was run: (§1)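 Medians of duplicate plates are given as relative viability. That measure is the nuclei count in treated wells divided by the count in vehicle wells. Counts were taken on 4× images of lung cancer cell lines in 1536-well plates, 5 days after pin-tool dosing the day after seeding with one drug alone or a fixed anchor-drug dose plus five library-drug doses (not always all listed) in √10 steps.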

QS11 + Lapatinib = compound: C1CC2=C(C1)C=C(C=C2)OC3=NC(=C4C(=N3)N(C=N4)CC5=CC=C(C=C5)C6=CC=CC=C6)N[C@@H](CC7=CC=CC=C7)CO [QS11] + CS(=O)(=O)CCNCc1ccc(-c2ccc3ncnc(Nc4ccc(OCc5cccc(F)c5)c(Cl)c4)c3c2)o1 [Lapatinib] (partner 2 µM)
How it was run: as §1

Darinaparsin + Olaparib = compound: C[As](C)SC[C@H](NC(=O)CC[C@H](N)C(=O)O)C(=O)NCC(=O)O [Darinaparsin] + O=C(c1cc(Cc2n[nH]c(=O)c3ccccc23)ccc1F)N1CCN(C(=O)C2CC2)CC1 [Olaparib] (partner 8 µM)
How it was run: as §1

[1] = compound: C[As](C)SC[C@H](NC(=O)CC[C@H](N)C(=O)O)C(=O)NCC(=O)O [Darinaparsin] + CC(=O)Nc1cccc(-n2c(=O)n(C3CC3)c(=O)c3c(Nc4ccc(I)cc4F)n(C)c(=O)c(C)c32)c1 [Trametinib] (partner 0.02 µM)
How it was run: as §1

| Cell Line | relative viability (QS11 + AZD7762; first compound 0.08 µM) | relative viability (QS11 + AZD7762; first compound 0.253 µM) | relative viability (QS11 + AZD7762; first compound 0.8 µM) | relative viability (QS11 + AZD7762; first compound 2.53 µM) | relative viability (QS11 + AZD7762; first compound 8 µM) | relative viability (QS11 + Lapatinib; first compound 0.08 µM) | relative viability (QS11 + Lapatinib; first compound 0.253 µM) | relative viability (QS11 + Lapatinib; first compound 0.8 µM) | relative viability (QS11 + Lapatinib; first compound 2.53 µM) | relative viability (QS11 + Lapatinib; first compound 8 µM) | relative viability (Darinaparsin + Olaparib; first compound 0.08 µM) | relative viability (Darinaparsin + Olaparib; first compound 0.8 µM) | relative viability (Darinaparsin + Olaparib; first compound 2.53 µM) | relative viability (Darinaparsin + Olaparib; first compound 8 µM) | relative viability ([1]; first compound 0.08 µM) | relative viability ([1]; first compound 0.8 µM) | relative viability ([1]; first compound 2.53 µM) | relative viability ([1]; first compound 8 µM) |
| --- | --- | --- | --- | --- | --- | --- | --- | --- | --- | --- | --- | --- | --- | --- | --- | --- | --- | --- |
| NCI-H2087 | 1.28 | 1.4 | 1.08 | 1.3 | 1.3 | 0.996 | 1.09 | 0.728 | 0.651 | 0.688 | 0.797 | 0.527 | 0.572 | 0.701 | 0.185 | 0.176 | 0.185 | 0.263 |
| NCI-H1755 | 0.472 | 0.492 | 0.42 | 0.48 | 0.413 | 1.12 | 1.02 | 0.608 | 0.953 | 0.833 | 0.915 | 0.774 | 0.848 | 0.899 | 0.811 | 0.795 | 0.857 | 0.844 |
| NCI-H838 | 1 | 0.87 | 0.844 | 0.905 | 1.03 | 0.944 | 0.918 | 0.68 | 0.899 | 0.904 | 1.07 | 0.778 | 0.734 | 0.941 | 0.54 | 0.458 | 0.504 | 0.666 |
| NCI-H1993 | 0.793 | 0.88 | 0.927 | 0.771 | 0.615 | 0.823 | 0.962 | 0.601 | 0.751 | 0.882 | 1.06 | 1.01 | 1.1 | 1.08 | 0.661 | 0.5 | 0.512 | 0.589 |
| HARA | 0.63 | – | 0.267 | 0.454 | 0.329 | 0.675 | 0.643 | – | 0.708 | 0.751 | 0.598 | – | 0.769 | 0.779 | 0.825 | – | 0.733 | 0.638 |
| PC-3 [JPC-3] | – | 0.767 | 0.736 | 0.792 | 0.832 | 0.464 | 0.409 | 0.436 | 0.5 | 0.435 | 1.42 | 1.15 | 1.16 | 1.26 | 0.758 | 0.737 | 0.704 | 0.659 |
| NCI-H1793 | 0.449 | 0.519 | 0.514 | 0.407 | 0.418 | 0.807 | 0.659 | 0.802 | 0.925 | 1.1 | 1 | 0.832 | – | 1.03 | 0.427 | 0.482 | – | 0.526 |
| NCI-H2126 | 1.01 | 0.999 | 0.846 | 1.01 | 0.933 | 0.792 | 0.698 | 0.727 | 0.802 | 0.717 | 0.986 | 0.886 | 0.84 | 1.12 | 0.629 | 0.563 | 0.575 | 0.542 |
| BEN | 0.577 | 0.66 | 0.929 | 0.773 | 0.79 | 0.555 | 0.89 | 0.864 | 0.781 | 1.19 | 1.21 | 0.993 | 1.06 | 1.08 | 1.18 | 0.998 | 0.991 | 1.12 |
